Structures are written as SMILES. Where two headings read alike, the source gives them in different places.

Data set [1] relates to rats. The data set can be described thus: Gas matrix: metabolic flexibility in altered gas environments, rats. It is filed as in vivo, rat. The settings on record: 0.03% in room air, ambient 7 to 10° C., 6-hour treatment. The protocol: Metabolic flexibility was evaluated in mice rats and dogs using altered gas environments. Three parameters were used to define this reduction in metabolism including changes in carbon dioxide production, oxygen consumption measured by respirometry, and core temperature as measured using telemetry. In experiments with mice and rats the animals were placed into sealed chambers with one gas import and one gas export. For dogs a mask was placed over the snout of the animal with two hoses (import and export) attached to the mask. The flow rate of gas for each of the animals mice—500 cc per minute, rats—2 liters per minute, and dogs 40 liters per minute. Each atmosphere was constructed from compressed gas by dilution into room air unless otherwise noted. For rat and mouse experiments the ambient temperature was 7 to 10° C. during exposure to the test gases. For dogs ambient temperature was room temperature (22° C.).
Evidence of depression in metabolic rate of greater than 5-fold as judged by carbon dioxide production or oxygen consumption during a 6-hour treatment is described by “Yes”; […]; “N/D” denotes experiments not done. The temperature drop in the dog experiment (Carbon dioxide+low oxygen+Helium) was approximately 1.5° C. over the course of 30 minutes of exposure. This drop in temperature was considered significant because the dog was 12 kg and no such temperature drop was seen during extensive baseline recording of the animal in room air.

Data set [2] has as its system mice. The text has this:
Female C57BL/6J mice (Jackson Laboratories—Bar Harbor, Me.) were implanted with telemetry devices (PDT-4000 HR E-Mitter—MiniMitter Inc.—Bend, Oreg.) according to standard protocol provided by the manufacturer. Mice were allowed to recover for several weeks to permit body temperature and heart rate signals to stabilize. Core body temperature, heart rate, and movement of the mice were continuously monitored via the telemetry devices and recorded using VitalView software (provided by MiniMitter). Ambient temperature was monitored using a HOBO (Onset Computer Corp. —Pocasset, Mass.) and the data analyzed using BoxCar software (provided by Onset Computer Corp.).
Prior to and during exposure to testing in regulated and unregulated atmospheres, the mice were placed in a gassing chamber comprising a glass cage (with drinking water and no food) fitted with import and export tubes of FEP tubing from Cole-Parmer (Vernon Hills, Ill.) for introduction and venting of the atmosphere. The cage was sealed with a lid using Dow Corning silicone vacuum grease (Sigma—St. Louis, Mo.). The gas from each cage was vented through the export tube into the chemical hood. To ensure that the system was gas-tight, a GasTech GT portable monitor was used to detect leaks.
In some experiments, the consumption of oxygen was measured by use of a PA-10a O2 analyzer (Sable Systems) which was used according to manufacturers instructions. Similarly, the carbon dioxide being produced by the animals was monitored using a LI-7000 CO2/H2O analyzer (Li-Cor company) used according to the manufacturers instructions. These instruments were placed in line with the environmental chambers such that they sample the gas import and export tubing.
Mice were housed in a Shel Lab low temperature diurnal illumination incubator (Sheldon Manufacturing Inc. —Cornelius, Oreg.) to regulate both temperature and light cycle (8 AM lights on, 8 PM lights off) for the mice. Mice were exposed to regulated atmosphere as described above. When the mice were exposed to the regulated atmosphere, the temperature inside the incubator was dropped to the desired temperature, for example, to 10° C. or 15° C. The mice were maintained in the regulated atmosphere and at the lowered temperature for six hours. The atmosphere in the gassing chamber was replaced with room air and the mice were returned to normal room temperature (22° C.) and allowed to recover.
To test this hypothesis, the inventor wanted to continuously monitor both the core body temperature and the activity levels of a homeothermic animal (a mouse).

The mark [3] stands for this setting: 80 ppm H2S, 15 minutes, 0.5 L chamber.

For `S` [H2S, hydrogen sulfide], the “depression in metabolic rate, Rat” value in data set [1] is given as “Yes 0.03% (Evidence of depression in metabolic rate of greater than 5-fold as judged by carbon dioxide production or oxygen consumption during a 6-hour treatment is described by “Yes”)”. Besides, the “core body temperature reached repeatedly” value in data set [2] (80 ppm) is 13-15 °C. The “reduction in carbon dioxide production” value in data set [2] (80 ppm H2S (FIG. 4A)) was “approximately 3 fold”. Also, in data set [2] (setting [3]), the “drop in carbon dioxide production” value is reported as 3-4 fold and the “drop in oxygen consumption” value is listed as 2-3 fold. The molecule further yielded a heart rate in data set [2] (80 ppm, 3 hrs, dropped from 600 bpm) of 250 bpm. Moreover, the “lowest core body temperature recorded” value in data set [2] (80 ppm, ambient temperature dropped to less than 10° C. (FIG. 7)) is 10.7 °C. Besides, the core temperature entry in data set [2] (80 ppm, cabinet 10° C., telemetry mouse, estimation from slope after electronics failed at 15.3° C.) was “approximately 12.5 °C”. This molecule also had a core body temperature in data set [2] (80 ppm, cabinet 10.5° C., approximately six hours) of 10.5 °C. In data set [2] (80 ppm, core temperature 15° C.), the “decrease in cellular respiration” value is 1-20 fold. Besides, the breathing in data set [2] (80 ppm, core temperature dropped to 15° C.) is recorded as 1-10 breaths per minute. Also, the core temperature in data set [2] (80 ppm, incubator 18° C., 90 min) was found to be 28.6 °C. In data set [2] (80 ppm, incubator 18° C., 3 hrs), this molecule displayed a core temperature of 18.6 °C. For the same molecule, in data set [2] (H2S (80 ppm) present), the Consumption of oxygen is 1300 ppm and the “production of carbon dioxide” value came out at 750 ppm. Further, in data set [2] (mouse, in vivo), the RQ turned out to be 0.58, the “behavior of the animals” value was “no apparent change in the behavior” and the “behavior tests (SHIRPA protocol)” value is listed as “no detectable behavioral differences”. Moreover, in data set [2] (seven mice, 80 ppm, 6 hrs, ambient temperature 13° C.), the “lowest average core body temperature” value was found to be 15 °C.
